# Reference: ChEMBL document CHEMBL3608267, “Identification of dialkyl diacetylene diols with potent cancer chemopreventive activity” (Bioorg Med Chem Lett, 2015)
# Experiments:
# [1] = Chemopreventive index, ratio of IC50 for mouse Hepa-1c1c7 cells to drug concentration required to double induction of NQO1 in mouse Hepa-1c1c7 cells
# [2] = Toxicity against mouse Hepa-1c1c7 cells assessed as inhibition of cell proliferation; assay type: cell-based
# [3] = molecular target: NAD(P)H dehydrogenase [quinone] 1 (Mus musculus) (UniProt Q64669); assay: Induction of NQO1 in mouse Hepa-1c1c7 cells assessed as drug concentration required to double induction by quinone reductase assay; assay type: cell-based
# Chain of NAD(P)H dehydrogenase [quinone] 1 (Mus musculus) (Q64669 whole entry): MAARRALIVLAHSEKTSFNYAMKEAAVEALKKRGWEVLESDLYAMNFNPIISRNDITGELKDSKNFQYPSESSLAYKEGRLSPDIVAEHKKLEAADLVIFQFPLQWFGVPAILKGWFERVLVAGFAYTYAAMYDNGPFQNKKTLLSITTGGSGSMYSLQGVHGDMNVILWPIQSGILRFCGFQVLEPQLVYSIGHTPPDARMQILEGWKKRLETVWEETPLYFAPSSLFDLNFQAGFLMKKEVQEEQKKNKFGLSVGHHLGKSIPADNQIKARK
smiles,measurement,setting,value
CCCCCCCCCC(O)C#CC#CC(O)CCCCC (stereo not drawn),Ratio,[1],4.6
same,IC50,[2],12 µM
same,CD,[3],2.6 µM
CCCCC[C@H](O)C#CC#C[C@H](O)CCCCC,Ratio,[1],14
same,IC50,[2],68 µM
same,CD,[3],4.7 µM
OC(C#CC#CC(O)C1CCCCC1)C1CCCCC1 (stereo not drawn),Ratio,[1],>6
same,IC50,[2],> 50 µM
same,CD,[3],8.4 µM
CC(C)CC(O)C#CC#CC(O)C1CCCCC1 (stereo not drawn),Ratio,[1],>8.9
same,IC50,[2],> 50 µM
same,CD,[3],5.6 µM
CCCCC[C@@H](O)C#CC#C[C@H](O)CCCCC,Ratio,[1],20
same,IC50,[2],12 µM
same,CD,[3],0.6 µM
CCCCCC(O)C#CC#CC(O)CCC (stereo not drawn),Ratio,[1],24
same,IC50,[2],19 µM
same,CD,[3],0.8 µM
CCCC(O)C#CC#CCO (stereo not drawn),Ratio,[1],>8.3
same,IC50,[2],> 50 µM
same,CD,[3],6 µM
CCCCC[C@H](O)C#CC#CCO,Ratio,[1],>31
same,IC50,[2],> 100 µM
same,CD,[3],3.2 µM
CCCCCC(O)C#CC#CC(O)CCCCC (mixture of isomers),Ratio,[1],>16
same,IC50,[2],> 50 µM
same,CD,[3],3.1 µM
CCCCC[C@H](O)C#CC#C[C@@H](O)CCCCC,Ratio,[1],18
same,IC50,[2],47 µM
same,CD,[3],2.6 µM
CCCCCCCCCC(O)C#CC#CC(O)C1CCCCC1 (stereo not drawn),Ratio,[1],4
same,IC50,[2],44 µM
same,CD,[3],11 µM
C[S+]([O-])CCCCN=C=S (stereo not drawn) [SULFORAPHANE],Ratio,[1],27
same,IC50,[2],11 µM
same,CD,[3],0.4 µM
CCCCCC(O)C#CC#CCO (racemic),Ratio,[1],>11
same,IC50,[2],> 50 µM
same,CD,[3],4.7 µM
C=CCCCCC/C=C\[C@@H](O)C#CC#C[C@@H](O)[C@H](C)O,Ratio,[1],>6.1
same,IC50,[2],> 50 µM
same,CD,[3],8.2 µM
CCCCCC(O)C#CC#CC(O)C1CCCCC1 (mixture of isomers),Ratio,[1],>16
same,IC50,[2],> 50 µM
same,CD,[3],3.2 µM
CCCCCCCCCC(O)C#CC#CC(O)CCC (stereo not drawn),Ratio,[1],7.2
same,IC50,[2],30 µM
same,CD,[3],4.2 µM
CCCCC[C@@H](O)C#CC#CCO,Ratio,[1],>43
same,IC50,[2],> 100 µM
same,CD,[3],2.3 µM
CCCCCCCCCC(O)C#CC#CC(O)CCCCCCCCC (stereo not drawn),Ratio,[1],1
same,IC50,[2],26 µM
same,CD,[3],26 µM
CCCCCCCCCC(O)C#CC#CC(O)CC(C)C (stereo not drawn),Ratio,[1],>5
same,IC50,[2],> 50 µM
same,CD,[3],10 µM
CCCCCC(O)C#CC#CC(O)CC(C)C (stereo not drawn),Ratio,[1],32
same,IC50,[2],41 µM
same,CD,[3],1.3 µM
CCCC(O)C#CC#CC(O)C1CCCCC1 (stereo not drawn),Ratio,[1],>8.1
same,IC50,[2],> 50 µM
same,CD,[3],6.2 µM
